Some test systems named below: SF-295 CNS; UACC-62 melanoma; OVCAR-4 ovarian; CCRF-CEM leukemia; NCI-H460 lung; HCT-15 colon; SNB-75 CNS; U251 CNS; SK-OV-3 ovarian; EKVX NSCLC.
Common to all, as to assay: inhibition of tumour cell growth, NCI panel, 48 h

Structures are written as SMILES.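 Growth conditions: 96-well plates. Treatment: test compound, 48 hours, 5 concentrations. Analysis: linear interpolation between bracketing concentrations; unreached endpoints set to highest concentration. GI50 is the concentration that inhibits growth by half. TGI denotes the concentration required for complete inhibition of growth.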

For the compound `O=Cc1ccccc1B(O)O`, the TGI in the experiment with SF-295 CNS is above 100 µM; with UACC-62 melanoma it was above 100 µM; in the experiment on OVCAR-4 ovarian, above 100 µM; in the experiment on CCRF-CEM leukemia, 40 µM; in the experiment on NCI-H460 lung it was above 100 µM; with HCT-15 colon, above 100 µM. For the same compound, the TGI in the experiment with SNB-75 CNS, in the experiment on U251 CNS and in the experiment on SK-OV-3 ovarian was above 100 µM throughout.
For `Nc1nc(N)c2c(n1)NC(c1ccc(F)cc1)C1CCc3ccccc3C1=N2` (stereo not drawn), the GI50 in the experiment with SF-295 CNS is 1.71 µM; with EKVX NSCLC it was 2.83 µM; in the experiment on UACC-62 melanoma, 3.76 µM; in the experiment with OVCAR-4 ovarian, 3.98 µM; in the experiment with NCI-H460 lung it was 3.76 µM; in the experiment with HCT-15 colon, 3.99 µM. The GI50 is 11.3 µM in the experiment with SNB-75 CNS, 4.29 µM in the experiment on U251 CNS and 11.1 µM in the experiment on SK-OV-3 ovarian. The TGI was determined as 6.18 µM in the experiment with SF-295 CNS; 14.6 µM in the experiment on EKVX NSCLC; 17.7 µM in the experiment on UACC-62 melanoma; 18.2 µM in the experiment on OVCAR-4 ovarian; 13.6 µM in the experiment with NCI-H460 lung; 16.5 µM in the experiment on HCT-15 colon. The results for the TGI in the experiment with SNB-75 CNS, with U251 CNS and in the experiment on SK-OV-3 ovarian were 23.8 µM, 16.9 µM and 23.3 µM, respectively.
Take `O=C(O)CCSC(=O)Nc1ccccc1F`: the TGI with EKVX NSCLC, in the experiment on OVCAR-4 ovarian, with CCRF-CEM leukemia, with NCI-H460 lung, in the experiment with HCT-15 colon and with U251 CNS was above 100 µM in each case.
`COC(=O)C1=C(C(=O)OC)SC(=C(Cl)C(=S)Nc2ccccc2O)S1`: the GI50 with SF-295 CNS was 6.57 µM; with UACC-62 melanoma, 8.84 µM; with OVCAR-4 ovarian, 35.5 µM; in the experiment with CCRF-CEM leukemia it was above 50 µM; with NCI-H460 lung, 11.5 µM; in the experiment with HCT-15 colon, 17.7 µM. Moreover, the GI50 was 33.7 µM with SNB-75 CNS, 12.2 µM with U251 CNS and 20 µM in the experiment with SK-OV-3 ovarian. In addition, the TGI is 24.9 µM with SF-295 CNS; 18.6 µM in the experiment on UACC-62 melanoma; above 50 µM in the experiment on OVCAR-4 ovarian; above 50 µM in the experiment on CCRF-CEM leukemia; above 50 µM in the experiment with NCI-H460 lung; above 50 µM in the experiment with HCT-15 colon. Further, the TGI in the experiment on SNB-75 CNS was above 50 µM; in the experiment on U251 CNS, 30.5 µM; in the experiment on SK-OV-3 ovarian it was above 50 µM.
`O=C(c1ccccc1)[C@@H]1C[C@H](Sc2ccccc2)c2cc(Cl)ccc2N1`: the TGI with SF-295 CNS was 92.5 µM; in the experiment with EKVX NSCLC, 50.3 µM; with UACC-62 melanoma, 51.6 µM; in the experiment with OVCAR-4 ovarian, above 100 µM; with NCI-H460 lung it was 91.6 µM; in the experiment on HCT-15 colon, above 100 µM. Further, the TGI in the experiment on SNB-75 CNS came to 58.7 µM; in the experiment on U251 CNS, 60.1 µM.
On to `COc1ccc(S(=O)(=O)Nc2cc(/C=C\c3cc(OC)c(OC)c(OC)c3)ccc2OC)cc1`, for which the GI50 was 0.0393 µM in the experiment on SF-295 CNS; 0.049 µM in the experiment with UACC-62 melanoma; 0.581 µM with OVCAR-4 ovarian; 0.176 µM in the experiment with CCRF-CEM leukemia; 0.178 µM with NCI-H460 lung; 0.0623 µM in the experiment with HCT-15 colon. Moreover, the GI50 with SNB-75 CNS is 0.0708 µM; in the experiment with U251 CNS, 0.108 µM; in the experiment on SK-OV-3 ovarian it was 0.0963 µM. In addition, the TGI was 70.9 µM in the experiment on SF-295 CNS; above 100 µM in the experiment with UACC-62 melanoma; above 100 µM with OVCAR-4 ovarian; above 100 µM in the experiment with CCRF-CEM leukemia; 11.7 µM in the experiment on NCI-H460 lung; above 100 µM with HCT-15 colon. Moreover, the values for the TGI with SNB-75 CNS, in the experiment with U251 CNS and with SK-OV-3 ovarian were 91.4 µM, above 100 µM and 38.3 µM, respectively.
With `COc1ccc(CC(=O)NCCc2ccc(OC)c(OC)c2)cc1Br`, the TGI in the experiment on SF-295 CNS, with EKVX NSCLC, in the experiment on UACC-62 melanoma, in the experiment with OVCAR-4 ovarian, with CCRF-CEM leukemia and in the experiment on NCI-H460 lung was above 100 µM throughout. Further, the TGI with U251 CNS and with SK-OV-3 ovarian was above 100 µM each time.
As to `O=S(=O)(c1cccc2c(Cl)cccc12)N1CCCNCC1`, the GI50 with SF-295 CNS was 17.7 µM; in the experiment with EKVX NSCLC it was 19.9 µM; with UACC-62 melanoma, 13.6 µM; in the experiment with OVCAR-4 ovarian, 11.2 µM; with CCRF-CEM leukemia, 15.1 µM; with NCI-H460 lung, 19.4 µM. In addition, the GI50 in the experiment on HCT-15 colon is 14.5 µM; in the experiment on U251 CNS, 14.6 µM; with SK-OV-3 ovarian, 15.7 µM. In addition, the TGI in the experiment with SF-295 CNS turned out to be 34.5 µM; in the experiment with EKVX NSCLC, 35.9 µM; with UACC-62 melanoma, 26.5 µM; in the experiment with OVCAR-4 ovarian, 24.3 µM; with CCRF-CEM leukemia it was 28.4 µM; in the experiment on NCI-H460 lung, 47 µM. Also, the TGI with HCT-15 colon is 27.5 µM; in the experiment with U251 CNS it was 27.7 µM; in the experiment with SK-OV-3 ovarian it was 29.1 µM.
For `COc1ccc(S(=O)(=O)N/N=C/c2cc(I)cc([N+](=O)[O-])c2O)cc1OC`, the TGI in the experiment with SF-295 CNS was above 100 µM; in the experiment on EKVX NSCLC it was above 100 µM; with UACC-62 melanoma, 59.7 µM; with OVCAR-4 ovarian, 70.3 µM; in the experiment with CCRF-CEM leukemia it was above 100 µM; in the experiment with NCI-H460 lung it was above 100 µM. Further, the results for the TGI in the experiment on HCT-15 colon, with U251 CNS and in the experiment on SK-OV-3 ovarian were above 100 µM, above 100 µM and 92.2 µM, respectively.
Consider `CN(C)C=[N+]=[N-]`, for which the TGI with SF-295 CNS, in the experiment on EKVX NSCLC, in the experiment on UACC-62 melanoma, with OVCAR-4 ovarian, in the experiment with NCI-H460 lung and with HCT-15 colon was above 100 µM in each case. For the same compound, the TGI in the experiment with SNB-75 CNS, in the experiment on U251 CNS and in the experiment on SK-OV-3 ovarian was above 100 µM each time.
Take `Oc1ccccc1CNCC12CC3CC(CC(C3)C1)C2`: the GI50 is 19.3 µM with SF-295 CNS; 17.8 µM with UACC-62 melanoma; 48.8 µM in the experiment with OVCAR-4 ovarian; 23.3 µM with NCI-H460 lung; 24.8 µM in the experiment on HCT-15 colon; 34.9 µM with SNB-75 CNS. Further, the results for the GI50 in the experiment on U251 CNS and in the experiment on SK-OV-3 ovarian were 20.7 µM and 35.8 µM, respectively. For the same compound, the TGI was 42.2 µM in the experiment on SF-295 CNS; 38.7 µM in the experiment on UACC-62 melanoma; above 100 µM in the experiment on OVCAR-4 ovarian; 57.7 µM in the experiment on NCI-H460 lung; 91.1 µM in the experiment with HCT-15 colon; above 100 µM in the experiment on SNB-75 CNS. In addition, the figures for the TGI in the experiment on U251 CNS and with SK-OV-3 ovarian were 49.3 µM and above 100 µM, respectively.
As for `O=C(O)C1C(C(=O)O)C23CC2(C(=O)O)C2(C(=O)O)CCC3=C3CCCC312` (stereo not drawn), the TGI in the experiment with SF-295 CNS was 20.8 µM; with EKVX NSCLC, 54.3 µM; in the experiment with UACC-62 melanoma, 23.5 µM; in the experiment with OVCAR-4 ovarian, 80.6 µM; with NCI-H460 lung it was 20 µM; with HCT-15 colon it was above 100 µM. In addition, the values for the TGI in the experiment on SNB-75 CNS, in the experiment on U251 CNS and in the experiment with SK-OV-3 ovarian were 93.5 µM, 23.8 µM and 36.6 µM, respectively.
Regarding `CCC[CH2][Sn]([CH2]CCC)([CH2]CCC)[O]C(=O)c1ccc(Cl)cc1Cl`, the GI50 in the experiment on SF-295 CNS is 0.197 µM; with EKVX NSCLC, 0.099 µM; in the experiment on UACC-62 melanoma, 0.161 µM; in the experiment on OVCAR-4 ovarian, 0.0958 µM; with NCI-H460 lung, 0.143 µM; with HCT-15 colon it was 0.173 µM. Further, the GI50 was 0.117 µM with SNB-75 CNS, 0.17 µM in the experiment on U251 CNS and 0.142 µM in the experiment on SK-OV-3 ovarian. In addition, the TGI in the experiment with SF-295 CNS worked out at 0.375 µM; in the experiment with EKVX NSCLC it was 0.273 µM; in the experiment on UACC-62 melanoma, 0.368 µM; in the experiment with OVCAR-4 ovarian, 0.226 µM; in the experiment with NCI-H460 lung it was 0.299 µM; in the experiment on HCT-15 colon it was 0.419 µM. Further, the results for the TGI in the experiment on SNB-75 CNS, in the experiment on U251 CNS and in the experiment with SK-OV-3 ovarian were 0.248 µM, 0.33 µM and 0.279 µM, respectively.
With `COc1cc(C(O)C(=O)c2nc3ccc([N+](=O)[O-])cc3[nH]c2=O)ccc1O` (stereo not drawn), the TGI in the experiment on SF-295 CNS, in the experiment on EKVX NSCLC, in the experiment with UACC-62 melanoma, in the experiment with OVCAR-4 ovarian, in the experiment with CCRF-CEM leukemia and in the experiment on NCI-H460 lung was above 100 µM throughout. For the same compound, the TGI with HCT-15 colon, with U251 CNS and in the experiment on SK-OV-3 ovarian was above 100 µM in each case.
Consider `C[N+]1(C)C/C(=C\c2ccccc2)C(=O)/C(=C/c2ccccc2)C1`, for which the TGI in the experiment with SF-295 CNS, in the experiment with OVCAR-4 ovarian, with CCRF-CEM leukemia, in the experiment on NCI-H460 lung, with HCT-15 colon and in the experiment on SNB-75 CNS was above 100 µM in each case. The TGI in the experiment with U251 CNS and in the experiment on SK-OV-3 ovarian was above 100 µM in each case.
Take `CC[C@@]1(OC(=O)CN)C(=O)OCc2c1cc1n(c2=O)Cc2cc3c(N)cccc3nc2-1`: the GI50 with SF-295 CNS is below 0.01 µM; with EKVX NSCLC, 0.265 µM; in the experiment with OVCAR-4 ovarian it was 0.211 µM; with CCRF-CEM leukemia, below 0.01 µM; with NCI-H460 lung, below 0.01 µM; in the experiment on HCT-15 colon it was 0.249 µM. Further, the GI50 in the experiment with U251 CNS is below 0.01 µM. Further, the TGI in the experiment with SF-295 CNS is 0.0497 µM; with EKVX NSCLC, above 100 µM; with OVCAR-4 ovarian, 3.32 µM; in the experiment on CCRF-CEM leukemia, above 100 µM; in the experiment with NCI-H460 lung, 0.114 µM; in the experiment on HCT-15 colon, above 100 µM. The compound further had a TGI in the experiment on U251 CNS of 0.405 µM.
On to `COc1ccc(/C(=N\O)c2cc(C)c(OC)c(C)c2)cc1O`, for which the GI50 with SF-295 CNS was below 0.01 µM; in the experiment with EKVX NSCLC it was 0.0613 µM; in the experiment on UACC-62 melanoma it was below 0.01 µM; in the experiment with OVCAR-4 ovarian it was 0.0279 µM; in the experiment with CCRF-CEM leukemia it was 0.0185 µM; in the experiment on NCI-H460 lung, below 0.01 µM. The GI50 with HCT-15 colon was below 0.01 µM; with U251 CNS, below 0.01 µM; in the experiment on SK-OV-3 ovarian it was 0.0166 µM. Also, the TGI with SF-295 CNS is above 100 µM; in the experiment on EKVX NSCLC it was above 100 µM; with UACC-62 melanoma it was above 100 µM; in the experiment with OVCAR-4 ovarian it was above 100 µM; with CCRF-CEM leukemia, above 100 µM; in the experiment on NCI-H460 lung it was 15.6 µM. For the same compound, the TGI with HCT-15 colon, with U251 CNS and in the experiment on SK-OV-3 ovarian was above 100 µM each time.
